Assays:
[1] = system: bedstraw; test: Test B pre/postemergence bedstraw; assay type: in vivo, Galium aparine
Method in brief: (§1)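 Herbicidal effect was estimated by eye on a ten-point control scale after plants spent twelve to sixteen days in a greenhouse following soil or foliar treatment. Foliar sprays targeted plants at one to four leaves; all doses were formulated in a non-phytotoxic solvent with surfactant.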

[2] = system: wild oat; test: Test B pre/postemergence wild oat; assay type: in vivo, Avena fatua
Method in brief: as §1

[3] = system: bamyardgrass; test: Test B flood test barnyardgrass; assay type: in vivo, Echinochloa crus-galli
Method in brief: (§2)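 Each value is a visual injury score relative to controls, with 10 meaning complete control and 0 no effect. Evaluation took place twelve to sixteen days after the 2-leaf-stage plants were treated and kept in the greenhouse.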

[4] = system: crabgrass; test: Test B pre/postemergence crabgrass; assay type: in vivo, Digitaria sanguinalis
Method in brief: as §1

[5] = system: blackgrass; test: Test B pre/postemergence blackgrass; assay type: in vivo, Alopecurus myosuroides
Method in brief: as §1

[6] = system: corn; test: Test B pre/postemergence corn; assay type: in vivo, Zea mays
Method in brief: as §1

[7] = system: sugar beet; test: Test B pre/postemergence sugar beet; assay type: in vivo, Beta vulgaris
Method in brief: as §1

[8] = system: rice; test: Test B flood test rice; assay type: in vivo, Oryza sativa
Method in brief: as §2

[9] = system: morningglory; test: Test B pre/postemergence morningglory; assay type: in vivo, Ipomoea hederacea
Method in brief: as §1

[10] = system: pigweed; test: Test B pre/postemergence pigweed; assay type: in vivo, Amaranthus retroflexus
Method in brief: as §1

[11] = system: velvetleaf; test: Test B pre/postemergence velvetleaf; assay type: in vivo, Abutilon theophrasti
Method in brief: as §1

[12] = system: rape; test: Test B pre/postemergence rape; assay type: in vivo, Brassica napus
Method in brief: as §1

[13] = system: cocklebur; test: Test B pre/postemergence cocklebur; assay type: in vivo, Xanthium strumarium
Method in brief: as §1

[14] = system: smallflower flatsedge; test: Test B flood test smallflower flatsedge; assay type: in vivo, Cyperus difformis
Method in brief: as §2

[15] = system: surinam grass; test: Test B pre/postemergence surinam grass; assay type: in vivo, Brachiaria decumbens
Method in brief: as §1

[16] = system: giant foxtail; test: Test B pre/postemergence giant foxtail; assay type: in vivo, Setaria faberii
Method in brief: as §1

[17] = Preemergence, Rate 62 g/ha, scale of 0 to 10 where 0 is no effect and 10 is complete control
[18] = Preemergence, Rate 250 g/ha, scale of 0 to 10 where 0 is no effect and 10 is complete control
[19] = Preemergence, Rate 500 g/ha, scale of 0 to 10 where 0 is no effect and 10 is complete control
[20] = Rate 62 g/ha, Postemergence, scale 0 to 10, 0 no effect, 10 complete control
[21] = Rate 125 g/ha, Postemergence, scale of 0 to 10 where 0 is no effect and 10 is complete control
[22] = Rate 250 g/ha, Postemergence, scale of 0 to 10 where 0 is no effect and 10 is complete control
[23] = Rate 62 g/ha, headed Pre-emergence (flood test species), scale 0 to 10 (0 no effect, 10 complete control)
[24] = Rate 125 g/ha, Pre-emergence, flood test species, scale 0 to 10 where 0 is no effect and 10 is complete control
[25] = Rate 250 g/ha, Pre-emergence, flood-test species, scale 0 to 10, 0 is no effect, 10 is complete control
[26] = Rate 500 g/ha, Pre-emergence, flood test species, scale 0 to 10 (0 no effect, 10 complete control)
[27] = Rate 500 g/ha, Postemergence, scale 0 to 10, 0 no effect, 10 complete control

Question: What does the source list for CC(C)N(C(=O)n1oc(=O)n(C2CC2)c1=O)c1ccc(F)cc1F [Compound 299]?
Answer: Bedstraw plant response rating [1, 17]: 10; Bedstraw plant response rating (0 to 10 scale) ([1]; Preemergence, Rate 125 g/ha): 10; Bedstraw plant response rating [1, 18]: 10; Bedstraw plant response rating [1, 19]: 10; Bedstraw plant response rating [1, 20]: 2; Bedstraw plant response rating [1, 21]: 7; Wild oats plant response rating [2, 17]: 2; Wild oats plant response rating (0 to 10 scale) ([2]; Preemergence, Rate 125 g/ha): 7; Wild oats plant response rating [2, 18]: 8; Wild oats plant response rating [2, 19]: 8; Wild oats plant response rating [2, 20]: 0; Wild oats plant response rating [2, 21]: 0; Plant response rating, Wild oats [2, 22]: 3; Barnyardgrass plant response rating [3, 23]: 0; Barnyardgrass plant response rating [3, 24]: 2; Barnyardgrass plant response rating [3, 25]: 6; Barnyardgrass plant response rating [3, 26]: 9; Crabgrass plant response rating [4, 17]: 6; Crabgrass plant response rating (0 to 10 scale) ([4]; Preemergence, Rate 125 g/ha): 9; Crabgrass plant response rating [4, 18]: 9; Crabgrass plant response rating [4, 19]: 9; Crabgrass plant response rating [4, 20]: 0; Crabgrass plant response rating [4, 21]: 3; Plant response rating, Crabgrass [4, 22]: 4; Blackgrass plant response rating [5, 17]: 9; Blackgrass plant response rating (0 to 10 scale) ([5]; Preemergence, Rate 125 g/ha): 10; Blackgrass plant response rating [5, 18]: 10; Blackgrass plant response rating [5, 19]: 10; Blackgrass plant response rating [5, 20]: 7; Blackgrass plant response rating [5, 21]: 8; Plant response rating, Blackgrass [5, 22]: 8; Blackgrass plant response rating [5, 27]: 9; Corn plant response rating [6, 17]: 0; Corn plant response rating (0 to 10 scale) ([6]; Preemergence, Rate 125 g/ha): 0; Corn plant response rating [6, 18]: 8; Corn plant response rating [6, 19]: 8; Corn plant response rating [6, 20]: 0; Corn plant response rating [6, 21]: 0; Plant response rating, Corn [6, 22]: 3; Corn plant response rating [6, 27]: 4; Sugarbeets plant response rating [7, 17]: 3; Sugarbeets plant response rating (0 to 10 scale) ([7]; Preemergence, Rate 125 g/ha): 8; Sugarbeets plant response rating [7, 18]: 9; Sugarbeets plant response rating [7, 19]: 10; Sugarbeets plant response rating [7, 20]: 2; Sugarbeets plant response rating [7, 21]: 3; Plant response rating, Sugarbeets [7, 22]: 4; Rice plant response rating [8, 23]: 0; Rice plant response rating [8, 24]: 0; Rice plant response rating [8, 25]: 0; Rice plant response rating [8, 26]: 0; Morningglory plant response rating [9, 17]: 0; Morningglory plant response rating (0 to 10 scale) ([9]; Preemergence, Rate 125 g/ha): 2; Morningglory plant response rating [9, 18]: 6; Morningglory plant response rating [9, 19]: 7; Morningglory plant response rating [9, 20]: 3; Morningglory plant response rating [9, 21]: 5; Plant response rating, Morningglory [9, 22]: 6; Redroot pigweed plant response rating [10, 17]: 9; Redroot pigweed plant response rating (0 to 10 scale) ([10]; Preemergence, Rate 125 g/ha): 10; Redroot pigweed plant response rating [10, 18]: 10; Redroot pigweed plant response rating [10, 19]: 10; Redroot pigweed plant response rating [10, 20]: 2; Redroot pigweed plant response rating [10, 21]: 3; Plant response rating, Redroot pigweed [10, 22]: 6; Velvetleaf plant response rating [11, 17]: 6; Velvetleaf plant response rating (0 to 10 scale) ([11]; Preemergence, Rate 125 g/ha): 7; Velvetleaf plant response rating [11, 18]: 8; Velvetleaf plant response rating [11, 19]: 8; Velvetleaf plant response rating [11, 20]: 0; Velvetleaf plant response rating [11, 21]: 0; Plant response rating, Velvetleaf [11, 22]: 6; Rape plant response rating [12, 17]: 1; Rape plant response rating (0 to 10 scale) ([12]; Preemergence, Rate 125 g/ha): 8; Rape plant response rating [12, 18]: 10; Rape plant response rating [12, 19]: 10; Rape plant response rating [12, 20]: 1; Rape plant response rating [12, 21]: 3; Plant response rating, Rape [12, 22]: 7; Cocklebur plant response rating [13, 17]: 0; Cocklebur plant response rating (0 to 10 scale) ([13]; Preemergence, Rate 125 g/ha): 0; Cocklebur plant response rating [13, 18]: 0; Cocklebur plant response rating [13, 19]: 0; Cocklebur plant response rating [13, 20]: 0; Cocklebur plant response rating [13, 21]: 2; Plant response rating, Cocklebur [13, 22]: 4; Cocklebur plant response rating [13, 27]: 5; S. Flatsedge plant response rating [14, 23]: 0; S. Flatsedge plant response rating [14, 24]: 0; S. Flatsedge plant response rating [14, 25]: 0; S. Flatsedge plant response rating [14, 26]: 0; B. signalgrass plant response rating [15, 17]: 6; B. signalgrass plant response rating (0 to 10 scale, 0 is no effect, 10 is complete control) ([15]; Preemergence, Rate 125 g/ha): 9; B. signalgrass plant response rating [15, 18]: 9; B. signalgrass plant response rating [15, 19]: 10; B. signalgrass plant response rating [15, 20]: 0; B. signalgrass plant response rating [15, 21]: 3; Plant response rating, B. signalgrass [15, 22]: 7; B. signalgrass plant response rating [15, 27]: 8; Giant foxtail plant response rating [16, 17]: 9; Giant foxtail plant response rating (0 to 10 scale) ([16]; Preemergence, Rate 125 g/ha): 10; Giant foxtail plant response rating [16, 18]: 10; Giant foxtail plant response rating [16, 19]: 10; Giant foxtail plant response rating [16, 20]: 7; Giant foxtail plant response rating [16, 21]: 7; Plant response rating, Giant foxtail [16, 22]: 8

Source: US6737383B1, “Herbicidal oxadiazolidines” (priority 1999, dated 2004)
